Data reported in US20190192458A1, “THERAPEUTIC/PROPHYLACTIC AGENT FOR GRAFT-VERSUS-HOST DISEASE, FIBROCYTE INVASION INHIBITOR, AND INHIBITOR AGAINST TEAR REDUCTION AND REDUCTION IN GOBLET CELLS” (KEIO UNIVERSITY, priority 2016, published 2019).

How the values were obtained:
cGVHD target organs = test: Histological observation of cGVHD target organs (HE, Mallory, CD45 immunostaining, electron microscopy, PAS); assay type: in vivo, mouse
Method: Bone marrow transplantation was performed as described in the above section “Bone marrow transplantation,” and the resulting allogeneic bone marrow transplantation recipient mice were divided into two groups. One group was treated with intraperitoneal injection of PBA (10 mg/kg) (Aldrich) while the other was treated with intraperitoneal injection of a solvent vehicle⋅phosphate buffered saline (PBS) (pH 7.4). The allogeneic bone marrow transplantation recipients received once-daily administration of PBA or the solvent vehicle from Day 10 to Day 27 after bone marrow transplantation. They were sacrificed on Day 28 after bone marrow transplantation.
cGVHD-affected organs (exorbital lacrimal gland, proximal portion of the small intestine, dorsal skin, liver, salivary gland, lung, large intestine, and eyes) were analyzed herein.
The exorbital lacrimal gland, the proximal part of the small intestine, dorsal skin, the liver, the salivary gland, the lung, the large intestine, and the eyes were collected from transplant recipients at 3 or 4 weeks after bone marrow transplantation. Subsequently, these samples were fixed with 10% neutral buffered formalin, and then each embedded in paraffin. The resulting paraffin blocks were each cut into 7-μm thick sections, and then stained with • (1) hematoxylin and eosin; • (2) Malory trichrome staining (Hopwood J, Fixation and fixtative. In: Bancroft J D, Stevens A, eds., Theory and Practice of Histological Techniques, 4th ed, Edinburgh: Churchill-Livingstone, 1996:23-46; Anderson G, Gordon K, Tissue processing, microtomy and paraffin sections. In: Bancroft J D, Stevens A, eds. T. Theory and Practice of Histological Techniques, 4th ed, Edinburgh: Churchill-Livingstone, 1996:47-68); and • (3) antibody.
For immunohistochemical assay, paraffin was first removed, and antigens were then collected by either one of the following two antigen collecting methods. • (A) For staining sections with CD45 antibody (30-F11, BD Pharmingen), the sections were immersed in an antigen retrieval solution (Target Retrieval Solution; Dako), and then boiled for 10 minutes in a microwave oven. • (B) For multistaining with CD68 (FA-11, Abd Serotec) and CHOP (F-168, Santa Cruz Biotechnology, Inc.), sections were washed with an antigen retrieval solution (HistoVT One; Nacalai Tesque, Inc.), and then heated in a water bath at 90° C. for 40 minutes. Next, the sections were blocked with 10% normal goat blood serum, and antigens in the tissue sections were then allowed to react with the primary antibodies at 4° C. overnight. Subsequently, the sections were treated with fluorophore-labelled secondary antibodies at room temperature (for example, 1 to 30° C.) for 45 minutes, and then mounted with an anti-fading mounting medium (Fluorescent Mounting Medium; Dako).
Fluorescence images were captured under an LSM confocal microscope (Carl Zeiss). For counting CD45^+ cells, 5 randomly selected regions per section were photographed at a magnification of ×200, and the number of CD45^+ cells in each image was then determined. As secondary antibodies, used were goat anti-mouse IgG (H+L) secondary antibody conjugated with Alexa Fluor 488 (Molecular Probes) and goat anti-rat IgG (H+L) secondary antibody conjugated with Alexa Fluor 568 (Molecular Probes). For isotype controls, rat IgG2b, κ (eB149/10H5, eBioscience, Inc.), rat IgG2a (54447, R&D Systems, Inc.), and rabbit IgG (Cell Signaling Technology, Inc.) were used for CD45, CD68, and CHOP, respectively.
Transmission electron microscopy was performed in accordance with a standard protocol. Tissues were collected from a mouse lacrimal gland and small intestine, and immediately fixed with 2.5% glutaraldehyde in 0.1 M phosphate buffer (pH 7.4) at 4° C. for 4 hours, and then washed 3 times with 0.1 M phosphate buffer. Subsequently, the samples were fixed again with 2% osmium tetroxide, and dehydrated with a gradient series of ethanol and 100% propylene oxide, and then embedded in epoxy resin. […]

CTGF = test: Immunoblot analysis of fibrosis marker CTGF in organs; assay type: in vivo, mouse; settings: PBA-treated vs vehicle-treated organs, n=4, P<0.05, FIG. 5B, 5C
Method: Bone marrow transplantation was performed as described in the above section “Bone marrow transplantation,” and the resulting allogeneic bone marrow transplantation recipient mice were divided into two groups. One group was treated with intraperitoneal injection of PBA (10 mg/kg) (Aldrich) while the other was treated with intraperitoneal injection of a solvent vehicle⋅phosphate buffered saline (PBS) (pH 7.4). The allogeneic bone marrow transplantation recipients received once-daily administration of PBA or the solvent vehicle from Day 10 to Day 27 after bone marrow transplantation. They were sacrificed on Day 28 after bone marrow transplantation. […]
Proteins of interest were visualized by either one of the following two methods. (1) A target protein was colorimetrically detected using a BCIP/NBT substrate (Promega). […]
The intensity of the resulting protein band was analyzed using image processing software ImageJ. […]
With regard to the secondary antibody, (1) either AP-conjugated anti-mouse IgG antibody (Promega) or AP-conjugated anti-rabbit IgG antibody (Promega) was used when protein bands were chromogenically visualized; (2) HRP-conjugated anti-mouse antibody (Thermo Fisher Scientific) or HRP-conjugated anti-rabbit antibody (Thermo Fisher Scientific) was used when target proteins were detected by ECL.

[1] = PBA-treated vs vehicle-treated eye, FIG. 4-1A

O=C(O)CCCc1ccccc1 [PBA, 4-phenyl-n-butyric acid]
electron microscopy: hypertrophied endoplasmic reticula, cell fragments, damaged mitochondria, destroyed small villi, damaged adjacent tissues (cGVHD target organs; PBA-treated lacrimal gland and small intestine vs vehicle-treated, FIG. 4-2D): not observed | goblet cells in conjunctiva epithelium (PAS staining) (cGVHD target organs; PBA-treated vs vehicle-injected eye, n=5, P<0.001, FIG. 4-2F, 4-2G): more goblet cells | goblet cells in small intestine (PAS staining) (cGVHD target organs; PBA-treated vs vehicle-injected small intestine, n=3, P<0.001, FIG. 4-2F, 4-2G): more goblet cells | conjunctiva epithelium thinning and damage (HE staining) (cGVHD target organs; [1]): thinning and damage were observed in the vehicle-treated conjunctiva epithelium in contrast with the PBA-treated conjunctiva epithelium | meibomian gland (HE staining) (cGVHD target organs; [1]): the meibomian gland of the vehicle-treated eye was decreased and contracted as compared with the PBA-treated meibomian gland | infiltration of inflammatory cells (HE staining) (cGVHD target organs; PBA-treated vs vehicle-treated organs, FIG. 4-1A): inhibited | cGVHD-induced systemic fibrosis (Mallory staining) (cGVHD target organs; PBA-treated vs vehicle-treated organs, FIG. 4-1C): substantially inhibited | numbers of inflammatory cells (CD45+ cells) (cGVHD target organs; PBA-treated vs vehicle-treated organs, immunostaining and counting, n=3, FIG. 4-2E): considerably smaller | skin thickness, fat tissues, density of collagen bundles (HE staining) (cGVHD target organs; PBA-treated vs vehicle-treated skin, FIG. 4-1A): the vehicle-treated skin became thickened, lost fat tissues, and increased the density of collagen bundles in contrast with the PBA-treated skin | intestinal villi of small and large intestines (HE staining) (cGVHD target organs; PBA-treated vs vehicle-treated small and large intestines, FIG. 4-1A): not impaired | structures of the intestinal and conjunctival mucous membranes (PAS staining) (cGVHD target organs; after systemic injection of PBA): remained intact | CTGF expression in organs (CTGF): overexpressed in the vehicle-treated organs, but not in the PBA-treated organs
